In US20240158446A1, “CYCLIC COMPOUND HAVING SELECTIVE INHIBITORY ACTION ON KRAS OVER HRAS AND NRAS” (CHUGAI SEIYAKU KABUSHIKI KAISHA, priority 2021, published 2024):
Where a SMILES comes first, the peptide text is derived from it. Bridges are numbered along the chain shown (N, C = ends). [ ]: non-standard residue; d: D form. The star is where a group is joined. hPhe(3-Cl-4-CF3) = N[C@@H](CCc1ccc(C(F)(F)F)c(Cl)c1)C(=O)O; NPrPhe(4-CF3) = CCCN[C@@H](Cc1ccc(C(F)(F)F)cc1)C(=O)O; NMeGly(cPent) = CN[C@H](C(=O)O)C1CCCC1; NMeChg = CN[C@H](C(=O)O)C1CCCCC1; NMeI = CC[C@H](C)[C@H](NC)C(=O)O; NMeD = CN[C@@H](CC(=O)O)C(=O)O; Ac4c(3-oxa) = NC1(C(=O)O)COC1; NMeL = CN[C@@H](CC(C)C)C(=O)O; NMeAbu = CC[C@H](NC)C(=O)O; NMeS = CN[C@@H](CO)C(=O)O; Morpholide = C1CN(*)CCO1; Piperidide = C1CCN(*)CC1; Ac5c = NC1(C(=O)O)CCCC1; Ac4c = NC1(C(=O)O)CCC1; Sar = CNCC(=O)O

Assays:
[1] = molecular target: GDP-bound NRAS wild-type protein (Homo sapiens, UniProt P01111); assay: Binding to NRAS by surface plasmon resonance (SPR), Single Cycle Kinetics; conditions: ratio of KD for GDP-bound NRAS wild-type protein to KD for KRAS, SPR
Sequence of GDP-bound NRAS wild-type protein (P01111 whole entry): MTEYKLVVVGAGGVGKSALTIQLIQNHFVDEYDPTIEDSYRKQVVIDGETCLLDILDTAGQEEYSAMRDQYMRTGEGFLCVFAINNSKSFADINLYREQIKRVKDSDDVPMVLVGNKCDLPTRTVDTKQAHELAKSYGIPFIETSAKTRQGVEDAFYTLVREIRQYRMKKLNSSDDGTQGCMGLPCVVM

[2] = molecular target: GDP-bound KRAS wild-type protein (Homo sapiens, UniProt P01116); assay: Binding to KRAS by surface plasmon resonance (SPR), Single Cycle Kinetics; conditions: SPR, Single Cycle Kinetics, GDP-bound KRAS wild-type protein; read-out: KRAS KD
Sequence of GDP-bound KRAS wild-type protein (P01116 whole entry): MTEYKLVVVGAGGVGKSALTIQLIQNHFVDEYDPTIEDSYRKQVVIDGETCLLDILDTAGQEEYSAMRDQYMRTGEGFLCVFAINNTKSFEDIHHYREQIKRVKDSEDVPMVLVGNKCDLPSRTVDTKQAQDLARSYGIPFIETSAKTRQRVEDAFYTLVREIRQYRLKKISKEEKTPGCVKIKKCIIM

[3] = test system: human lung cancer strain NCI-H441; assay: cells; conditions: NCI-H441, 96 h, read-out: NCI-H441 IC50 (nM), NCI-H441 cell proliferation, 4 days, CellTiter-Glo;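 also: cell proliferation inhibition after four days measured by CellTiter-Glo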
[4] = molecular target: GDP-bound HRAS wild-type protein (Homo sapiens, UniProt P01112); assay: Binding to HRAS by surface plasmon resonance (SPR), Single Cycle Kinetics; conditions: ratio of KD for GDP-bound HRAS wild-type protein to KD for KRAS, SPR
Sequence of GDP-bound HRAS wild-type protein (P01112 whole entry): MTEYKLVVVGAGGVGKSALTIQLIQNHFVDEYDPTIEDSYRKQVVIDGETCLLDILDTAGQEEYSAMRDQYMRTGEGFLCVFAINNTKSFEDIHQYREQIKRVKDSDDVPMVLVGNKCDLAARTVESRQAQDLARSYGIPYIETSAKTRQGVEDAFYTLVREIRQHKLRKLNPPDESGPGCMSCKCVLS

| SMILES | NRAS/KRAS (KD ratio) [1] | Kd [2] [nM] | IC50 [3] [nM] | HRAS/KRAS (KD ratio) [4] |
| --- | --- | --- | --- | --- |
| CCCN(C)C(=O)[C@@H]1CC(=O)N(C)[C@@H](CC(C)C)C(=O)N[C@@H]([C@@H](C)OC)C(=O)N(C)CC(=O)N(C)[C@H]2C/C=C\CCN(C2=O)[C@@H](Cc2ccc(C(F)(F)F)cc2)C(=O)N(C)CC(=O)N[C@@H](CCc2cc(F)c(C(F)(F)F)c(F)c2)C(=O)N2C[C@H](OCC)C[C@H]2C(=O)NC2(CC(C)(C)C2)C(=O)N(C)[C@@H](C2CCCC2)C(=O)N1C [PP1917] | A (a compound having 10 or more and less than 20 is denoted as A) | 0.29 | 22.5 | A (a compound having 10 or more and less than 20 is denoted as A) |
| CCCN1C(=O)CN(C)C(=O)CN(C)C(=O)[C@H]([C@@H](C)CC)NC(=O)[C@H](CC(C)C)N(C)C(=O)C[C@@H](C(=O)N2CCOCC2)N(C)C(=O)[C@H](C2CCCC2)N(C)C(=O)C2(CCC2)NC(=O)[C@H](CC)N(C)C(=O)[C@H](CCc2ccc(C(F)(F)F)c(Cl)c2)NC(=O)CN(C)C(=O)[C@@H]1Cc1ccc(C(F)(F)F)cc1 [PP1918] ([NMeL]I[Sar][Sar][NPrPhe(4-CF3)][Sar][hPhe(3-Cl-4-CF3)][NMeAbu][Ac4c][NMeGly(cPent)][NMeD]-Morpholide; lactam N-11) | B (a compound having 3 or more and less than 10 is denoted as B) | 0.19 | 32.8 | C (A compound having a KD ratio of 0.1 or more and less than 3 is denoted as C) |
| CCO[C@@H]1C[C@H]2C(=O)NC3(CC(C)(C)C3)C(=O)N(C)[C@@H](C3CCCC3)C(=O)N(C)[C@H](C(=O)N(C)CC)CC(=O)N(C)[C@@H](CC(C)C)C(=O)N[C@@H]([C@@H](C)OCC)C(=O)N(C)CC(=O)N(C)[C@H]3C/C=C\CCN(C3=O)[C@@H](Cc3ccc(C(F)(F)F)cc3)C(=O)N(C)CC(=O)N[C@@H](CCc3cc(F)c(C(F)(F)F)c(F)c3)C(=O)N2C1 [PP1919] | A (a compound having 10 or more and less than 20 is denoted as A) | 0.23 | 6.3 | A (a compound having 10 or more and less than 20 is denoted as A) |
| CCCN1C(=O)CN(C)C(=O)CN(C)C(=O)[C@H]([C@@H](C)CC)NC(=O)[C@H](CC(C)C)N(C)C(=O)C[C@@H](C(=O)N2CCOCC2)N(C)C(=O)[C@H](C2CCCC2)N(C)C(=O)C2(CCCC2)NC(=O)[C@H](COC)N(C)C(=O)[C@H](CCc2ccc(C(F)(F)F)c(Cl)c2)NC(=O)CN(C)C(=O)[C@@H]1Cc1ccc(C(F)(F)F)cc1 [PP1920] ([NMeL]I[Sar][Sar][NPrPhe(4-CF3)][Sar][hPhe(3-Cl-4-CF3)][NMeS](Me)[Ac5c][NMeGly(cPent)][NMeD]-Morpholide; lactam N-11) | B (a compound having 3 or more and less than 10 is denoted as B) | 0.31 | 32.4 | C (A compound having a KD ratio of 0.1 or more and less than 3 is denoted as C) |
| CCCO[C@H](C)[C@@H]1NC(=O)[C@H](CC(C)C)N(C)C(=O)C[C@@H](C(=O)N(C)C)N(C)C(=O)[C@H](C2CCCC2)N(C)C(=O)C2(CC(C)(C)C2)NC(=O)[C@@H]2C[C@@H](OCC)CN2C(=O)[C@H](CCc2cc(F)c(C(F)(F)F)c(F)c2)NC(=O)CN(C)C(=O)[C@H](Cc2ccc(C(F)(F)F)cc2)N2CC/C=C\C[C@@H](C2=O)N(C)C(=O)CN(C)C1=O [PP1921] | A (a compound having 10 or more and less than 20 is denoted as A) | 0.055 | 7.8 | A (a compound having 10 or more and less than 20 is denoted as A) |
| CCCN1C(=O)CN(C)C(=O)CN(C)C(=O)[C@H]([C@@H](C)CC)NC(=O)[C@H](CC(C)C)N(C)C(=O)C[C@@H](C(=O)N2CCOCC2)N(C)C(=O)[C@H](C2CCCC2)N(C)C(=O)C2(COC2)NC(=O)[C@@H]2CCCN2C(=O)[C@H](CCc2ccc(C(F)(F)F)c(Cl)c2)NC(=O)CN(C)C(=O)[C@@H]1Cc1ccc(C(F)(F)F)cc1 [PP1922] ([NMeL]I[Sar][Sar][NPrPhe(4-CF3)][Sar][hPhe(3-Cl-4-CF3)]P[Ac4c(3-oxa)][NMeGly(cPent)][NMeD]-Morpholide; lactam N-11) | B (a compound having 3 or more and less than 10 is denoted as B) | 0.23 | 44.1 | C (A compound having a KD ratio of 0.1 or more and less than 3 is denoted as C) |
| CCCN(C)C(=O)[C@@H]1CC(=O)N(C)[C@@H](CC(C)C)C(=O)N[C@@H](C2CCOCC2)C(=O)N(C)CC(=O)N(C)[C@H]2C/C=C\CCN(C2=O)[C@@H](Cc2ccc(C(F)(F)F)cc2)C(=O)N(C)CC(=O)N[C@@H](CCc2cc(F)c(C(F)(F)F)c(F)c2)C(=O)N2C[C@H](OCC)C[C@H]2C(=O)NC2(CC(C)(C)C2)C(=O)N(C)[C@@H](C2CCCC2)C(=O)N1C [PP1923] | A (a compound having 10 or more and less than 20 is denoted as A) | 3.4 | 68 | A (a compound having 10 or more and less than 20 is denoted as A) |
| CCC[C@H]1C(=O)N[C@@H]([C@@H](C)CC)C(=O)N2CC[C@H]2C(=O)N(C)[C@H]2C/C=C\CCN(C2=O)[C@@H](Cc2ccc(C(F)(F)F)cc2)C(=O)N(C)CC(=O)N[C@@H](CCc2cc(F)c(C(F)(F)F)c(F)c2)C(=O)N2C[C@H](OCC)C[C@H]2C(=O)NC2(CC(C)(C)C2)C(=O)N(C)[C@@H](C2CCCC2)C(=O)N(C)[C@H](C(=O)N(C)C)CC(=O)N1C [PP1925] | A (a compound having 10 or more and less than 20 is denoted as A) | 0.23 | 9.7 | A (a compound having 10 or more and less than 20 is denoted as A) |
| CCCN1C(=O)CN(C)C(=O)CN(C)C(=O)[C@H]([C@@H](C)CC)NC(=O)[C@H](CC(C)C)N(C)C(=O)C[C@@H](C(=O)N2CCOCC2)N(C)C(=O)[C@H]([C@@H](C)CC)N(C)C(=O)C2(CCCC2)NC(=O)[C@@H]2CCCN2C(=O)[C@H](CCc2ccc(C(F)(F)F)c(Cl)c2)NC(=O)CN(C)C(=O)[C@@H]1Cc1ccc(C(F)(F)F)cc1 [PP1926] ([NMeL]I[Sar][Sar][NPrPhe(4-CF3)][Sar][hPhe(3-Cl-4-CF3)]P[Ac5c][NMeI][NMeD]-Morpholide; lactam N-11) | B (a compound having 3 or more and less than 10 is denoted as B) | 0.36 | 17.4 | B (a compound having 3 or more and less than 10 is denoted as B) |
| CCC[C@H]1C(=O)N[C@@H]([C@@H](C)CC)C(=O)N[C@@H](C)C(=O)N(C)[C@H]2C/C=C\CCN(C2=O)[C@@H](Cc2ccc(C(F)(F)F)cc2)C(=O)N(C)CC(=O)N[C@@H](CCc2cc(F)c(C(F)(F)F)c(F)c2)C(=O)N2C[C@H](OCC)C[C@H]2C(=O)NC2(CC(C)(C)C2)C(=O)N(C)[C@@H](C2CCCC2)C(=O)N(C)[C@H](C(=O)N(C)C)CC(=O)N1C [PP1927] | A (a compound having 10 or more and less than 20 is denoted as A) | 0.85 | 23.5 | A (a compound having 10 or more and less than 20 is denoted as A) |
| CCCN1C(=O)CN(C)C(=O)CN(C)C(=O)[C@H]([C@@H](C)CC)NC(=O)[C@H](CC(C)C)N(C)C(=O)C[C@@H](C(=O)N2CCOCC2)N(C)C(=O)[C@H](C2CCCCC2)N(C)C(=O)C2(CCC2)NC(=O)[C@@H]2CCCN2C(=O)[C@H](CCc2ccc(C(F)(F)F)c(Cl)c2)NC(=O)CN(C)C(=O)[C@@H]1Cc1ccc(C(F)(F)F)cc1 [PP1928] ([NMeL]I[Sar][Sar][NPrPhe(4-CF3)][Sar][hPhe(3-Cl-4-CF3)]P[Ac4c][NMeChg][NMeD]-Morpholide; lactam N-11) | B (a compound having 3 or more and less than 10 is denoted as B) | 0.25 | 18.4 | B (a compound having 3 or more and less than 10 is denoted as B) |
| CCCN1C(=O)CN(C)C(=O)CN(C)C(=O)[C@H]([C@@H](C)CC)NC(=O)[C@H](CC(C)C)N(C)C(=O)C[C@@H](C(=O)N2CCCCC2)N(C)C(=O)[C@H](C2CCCC2)N(C)C(=O)C2(CCC2)NC(=O)[C@@H]2CCCN2C(=O)[C@H](CCc2ccc(C(F)(F)F)c(Cl)c2)NC(=O)CN(C)C(=O)[C@@H]1Cc1ccc(C(F)(F)F)cc1 [PP1930] ([NMeL]I[Sar][Sar][NPrPhe(4-CF3)][Sar][hPhe(3-Cl-4-CF3)]P[Ac4c][NMeGly(cPent)][NMeD]-Piperidide; lactam N-11) | B (a compound having 3 or more and less than 10 is denoted as B) | 0.23 | 7 | C (A compound having a KD ratio of 0.1 or more and less than 3 is denoted as C) |
| CCO[C@@H]1C[C@H]2C(=O)NC3(CC(C)(C)C3)C(=O)N(C)[C@@H](C3CCCC3)C(=O)N(C)[C@H](C(=O)N(C)C)CC(=O)N(C)[C@@H](CC(C)C)C(=O)N[C@@H]([C@@H](C)CC)C(=O)N(C)CC(=O)N(C)[C@H]3C/C=C\CCN(C3=O)[C@@H](Cc3ccc(C(F)(F)F)cc3)C(=O)N(C)CC(=O)N[C@@H](CCc3ccc(C(F)(F)F)c(F)c3)C(=O)N2C1 [PP1931] | A (a compound having 10 or more and less than 20 is denoted as A) | 0.12 | 9.5 | B (a compound having 3 or more and less than 10 is denoted as B) |
